ChEMBL document CHEMBL5247579, “Targeting PGAM1 in cancer: An emerging therapeutic opportunity” (Eur J Med Chem, 2022)

Experiments:
KG-1a = test: Antiproliferative activity against human KG-1a cells assessed as decrease in cell viability incubated for 72 hrs by trypan blue exclusion assay; assay type: functional, cell-based
NCI-H1299 [1] = test: Antiproliferative activity against human NCI-H1299 cells assessed as decrease in cell viability incubated for 72 hrs by trypan blue exclusion assay; assay type: functional, cell-based; settings: NCI-H1299, 72 h
A549 [2] = test: Antiproliferative activity against human A549 cells assessed as reduction in cell viability incubated for 72 hrs by CCK8 assay; assay type: functional, cell-based; settings: A549, 72 h
PC-9 = test: Antiproliferative activity against human PC-9 cells assessed as reduction in cell viability incubated for 72 hrs by CCK8 assay; assay type: functional, cell-based; settings: PC-9, 72 h
[3] = biological target: T1, Phosphoglycerate mutase 1 (Homo sapiens, UniProt P18669); test: Inhibition of His-tagged recombinant PGAM1 (unknown origin) expressed in Escherichia coli BL21 assessed as decrease in absorbance from oxidation of NADH in presence of LDH, pyruvate kinase M1 and NADH by microplate reader assay
[4] = biological target: T1, Phosphoglycerate mutase 1; test: Inhibition of recombinant PGAM1 (unknown origin) assessed as decrease in absorbance in presence of LDH, pyruvate kinase M2 and NADH by spectroscopic analysis
PANC-1 = test: Antiproliferative activity against human PANC-1 cells assessed as reduction in cell viability incubated for 24 hrs by CCK-8 assay; assay type: functional, cell-based; settings: PANC-1, 24 h
ASPC1 = test: Antiproliferative activity against human ASPC1 cells assessed as reduction in cell viability incubated for 24 hrs by CCK-8 assay; assay type: functional, cell-based; settings: ASPC1, 24 h
MIA PaCa-2 = test: Antiproliferative activity against human MIA PaCa-2 cells assessed as reduction in cell viability incubated for 24 hrs by CCK-8 assay; assay type: functional, cell-based; settings: MIA PaCa-2, 24 h
NCI-H1299 [5] = test: Antiproliferative activity against human NCI-H1299 cells assessed as reduction in cell viability incubated for 72 hrs by MTT assay; assay type: functional, cell-based; settings: NCI-H1299, 72 h
A549 [6] = test: Antiproliferative activity against human A549 cells assessed as reduction in cell viability incubated for 72 hrs by MTT assay; assay type: functional, cell-based; settings: A549, 72 h
HCC827 [7] = test: Antitumor activity against erlotinib-resistant human HCC827 cells assessed as reduction in cell viability incubated for 72 hrs by CCK-8 assay; assay type: functional, cell-based; settings: HCC827, 72 h
HCC827 [8] = test: Antitumor activity against human HCC827 cells assessed as reduction in cell viability incubated for 72 hrs by CCK-8 assay; assay type: functional, cell-based; settings: HCC827, 72 h
A549 [9] = test: Antitumor activity against human A549 cells assessed as reduction in cell viability incubated for 72 hrs by CCK-8 assay; assay type: functional, cell-based; settings: A549, 72 h
[10] = biological target: T1, Phosphoglycerate mutase 1; test: Allosteric inhibition of PGAM1 (unknown origin) assessed as decrease in absorbance in presence of LDH, pyruvate kinase M2 and NADH by spectroscopic analysis
MDA-MB-231 = test: Antiproliferative activity against human MDA-MB-231 cells assessed as inhibition of cell proliferation incubated for 12 hrs by BrdU incorporation assay; assay type: functional, cell-based; settings: MDA-MB-231, 12 h
[11] = biological target: T1, Phosphoglycerate mutase 1; test: Inhibition of human PGAM1 in human MDA-MB-231 cells assessed as decrease in PGAM1 activity incubated for 2 hrs by UV/Vis spectrophotometry; assay type: cell-based
[12] = biological target: T1, Phosphoglycerate mutase 1; test: Inhibition of His6-tagged human PGAM1 expressed in Escherichia coli BL21(DE3)pLysS cells assessed as decrease in autofluorescence from oxidation of NADH in presence of LDH and pyruvate kinase M1 by multiple enzymes coupled assay

T1 sequence (P18669 whole entry): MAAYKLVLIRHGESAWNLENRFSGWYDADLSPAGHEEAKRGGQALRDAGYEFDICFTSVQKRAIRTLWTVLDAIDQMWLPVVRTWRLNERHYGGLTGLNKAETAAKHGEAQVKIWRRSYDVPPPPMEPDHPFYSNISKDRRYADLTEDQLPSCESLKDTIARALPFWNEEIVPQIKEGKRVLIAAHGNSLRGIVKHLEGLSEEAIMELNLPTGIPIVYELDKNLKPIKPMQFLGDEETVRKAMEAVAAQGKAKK

O=C1c2ccccc2C(=O)c2c1cc(S(=O)(=O)Nc1ccc(C(F)(F)F)cc1)c(O)c2O showed an EC50 (KG-1a) of 17.1 µM, an EC50 (NCI-H1299 [1]) of 25.6 µM and an EC50 (A549 [2]) of 38.7 µM. The EC50 (PC-9) was 17.8 µM.
[N-]=[N+]=NCCCCC(=O)Oc1ccccc1S(=O)(=O)Nc1cc2c(c(O)c1O)C(=O)c1ccccc1C2=O showed an IC50 [3] of 1.3 µM.
Work on O=C1c2ccccc2C(=O)c2c1cc(NS(=O)(=O)c1ccc(N3CCCC3)cc1)c(O)c2O yielded an IC50 [4] of 0.105 µM, an EC50 (PANC-1) of 0.501 µM and an EC50 (ASPC1) of 0.51 µM. The EC50 (MIA PaCa-2) was 0.271 µM.
CN(C)c1ccc(S(=O)(=O)Nc2cc3c(c(O)c2O)C(=O)c2ccccc2C3=O)cc1 gave an IC50 [4] of 0.77 µM.
With O=C1c2ccccc2C(=O)c2c1cc(NS(=O)(=O)O)c(O)c2O the IC50 [4] was 5.4 µM.
In the case of CC(=O)Oc1ccccc1S(=O)(=O)Nc1cc2c(c(O)c1O)C(=O)c1ccccc1C2=O, the IC50 [3] is reported as 1 µM.
O=C1c2ccccc2C(=O)c2c1cc(NS(=O)(=O)c1ccc(Cl)cc1)c(O)c2O was tested, and the EC50 (NCI-H1299 [5]) was 6.9 µM and the EC50 (A549 [6]) was 12.7 µM.
With O=C1c2ccccc2C(=O)c2c1cc(NS(=O)(=O)c1ccc(N3CCC3)cc1)c(O)c2O the EC50 (HCC827 [7]) was 1.02 µM, the EC50 (HCC827 [8]) was 1.71 µM and the EC50 (A549 [9]) was 5.62 µM. For the same compound, the IC50 [10] was 0.85 µM.
Compound C#CCCCC(=O)OC(C)(C)C1CCCOC(OC(=O)N[C@@H](Cc2c[nH]c3ccccc23)C(=O)OCc2ccccc2)C1 (some centres not stated) has an IC50 (MDA-MB-231) of 19 µM and an EC50 [11] of 33 µM.
With O=C1c2ccccc2C(=O)c2c1ccc(O)c2O [ATHRAQUINONES A] the IC50 [12] was > 20 µM and the EC50 (KG-1a) was 60.2 µM.
